Laboratory results published in ChEMBL document CHEMBL4304805, “Antibacterial activity of 2-amino-4-hydroxypyrimidine-5-carboxylates and binding to Burkholderia pseudomallei 2-C-methyl-d-erythritol-2,4-cyclodiphosphate synthase” (Bioorg Med Chem Lett, 2019).

Assays:
Type in all cases: functional
Conditions in all cases: read-out: DIZ
[1] = system: Burkholderia thailandensis; test: Antibacterial activity against Burkholderia thailandensis at 0.5 mM by Kirby Bauer disk diffusion method
[2] = system: Pseudomonas aeruginosa; test: Antibacterial activity against Pseudomonas aeruginosa at 0.5 mM by Kirby Bauer disk diffusion method
[3] = system: Bacillus cereus; test: Antibacterial activity against Bacillus cereus at 0.5 mM by Kirby Bauer disk diffusion method
[4] = system: Corynebacterium pseudodiphtheriticum; test: Antibacterial activity against Corynebacterium pseudodiphtheriticum at 0.5 mM by Kirby Bauer disk diffusion method
[5] = system: Mycolicibacterium smegmatis; test: Antibacterial activity against Mycobacterium smegmatis at 0.5 mM by Kirby Bauer disk diffusion method
[6] = system: Escherichia coli; test: Antibacterial activity against Escherichia coli at 0.5 mM by Kirby Bauer disk diffusion method
[7] = system: Klebsiella pneumoniae; test: Antibacterial activity against Klebsiella pneumoniae at 0.5 mM by Kirby Bauer disk diffusion method
[8] = system: Micrococcus luteus; test: Antibacterial activity against Micrococcus luteus at 0.5 mM by Kirby Bauer disk diffusion method
[9] = system: Corynebacterium xerosis; test: Antibacterial activity against Corynebacterium xerosis at 0.5 mM by Kirby Bauer disk diffusion method

Row | SMILES | zone of inhibition at 500 µM [1] [mm] | zone of inhibition at 500 µM [2] [mm] | zone of inhibition at 500 µM [3] [mm] | zone of inhibition at 500 µM [4] [mm] | zone of inhibition at 500 µM [5] [mm] | zone of inhibition at 500 µM [6] [mm] | zone of inhibition at 500 µM [7] [mm] | zone of inhibition at 500 µM [8] [mm] | zone of inhibition at 500 µM [9] [mm]
1 | CCOC(=O)c1cnc(NCCc2ccncc2)nc1O | 4 | 0 | 8 | – | – | – | – | – | –
2 | CCOC(=O)c1cnc(NCc2ccccc2Cl)nc1O | 0 | 0 | 10 | 0 | 0 | 0 | 0 | 15 | 0
3 | O=C(O)c1cnc(NCc2ccc(F)cc2)nc1O | 12 | 0 | 12 | 0 | 0 | 0 | 0 | 0 | 0
4 | CCOC(=O)c1cnc(Nc2ccc(-c3ccncc3)cc2)nc1O | 0 | 0 | 0 | 0 | 16 | 0 | 0 | 0 | 0
5 | CCOC(=O)c1cnc(Nc2ccc3[nH]ncc3c2)nc1O | 8 | 10 | 10 | 0 | 10 | 0 | 0 | 0 | 0
6 | CCOC(=O)c1cnc(NCC2CCCO2)nc1O (centres undefined) | 11 | 0 | 0 | 0 | 15 | 0 | 0 | 0 | 0
7 | CCOC(=O)c1cnc(NCCc2cccc(F)c2)nc1O | 0 | 0 | 0 | 0 | 0 | 0 | 0 | 0 | 0
8 | CCOC(=O)c1cnc(Nc2ccc(CC(=O)O)cc2)nc1O | 8 | 0 | 11 | 0 | 0 | 10 | 9 | 0 | 0
9 | CCOC(=O)c1cnc(NCc2ccc(Cl)nc2)nc1O | 9 | 0 | 10 | – | – | – | – | – | –
10 | CCOC(=O)c1cnc(NCCc2ccccc2Cl)nc1O | 12 | 0 | 9 | 0 | 15 | 0 | 0 | 0 | 0
11 | O=C(O)c1cnc(NCc2cc(Cl)ccc2Cl)nc1O | 10 | 9 | 10 | 10 | 15 | 11 | 8 | 0 | 0
12 | O=C(O)c1cnc(NCC2CCCO2)nc1O (centres undefined) | 7 | 0 | 0 | 0 | 0 | 0 | 0 | 0 | 0
13 | O=C(O)c1cnc(NCCc2ccc(Cl)cc2)nc1O | 12 | 19 | – | 0 | 14 | 0 | 0 | 0 | 0
14 | CCOC(=O)c1cnc(Nc2ccc(N3CCCCC3)cc2)nc1O | 14 | 13 | 15 | 0 | 16 | 19 | 13 | 0 | 0
15 | O=C(O)c1cnc(Nc2ccc(Br)cc2)nc1O | 13 | 0 | 12 | 16 | 17 | 15 | 12 | 0 | 16
16 | CCOC(=O)c1cnc(NCc2ccc(F)cc2)nc1O | 8 | 0 | 19 | 0 | 0 | 0 | 0 | 0 | 0

Row | SMILES | zone of inhibition at 500 µM [1] [mm] | zone of inhibition at 500 µM [2] [mm] | zone of inhibition at 500 µM [3] [mm] | zone of inhibition at 500 µM [4] [mm] | zone of inhibition at 500 µM [5] [mm] | zone of inhibition at 500 µM [6] [mm] | zone of inhibition at 500 µM [7] [mm] | zone of inhibition at 500 µM [8] [mm] | zone of inhibition at 500 µM [9] [mm]
17 | CCOC(=O)c1cnc(NCCc2ccccn2)nc1O | 0 | 0 | 8 | – | – | – | – | – | –
18 | Nc1ccc(C(=O)O)c(O)c1 [AMINOSALICYLIC ACID] | 12 | 0 | 9 | 0 | 14 | 11 | 0 | 0 | 0
19 | CCOC(=O)c1cnc(NCCc2ccc(Cl)c(Cl)c2)nc1O | 0 | 0 | 10 | 0 | 0 | 0 | 0 | 0 | 0
20 | O=C(O)c1cnc(NCCc2ccncc2)nc1O | 10 | 0 | – | – | – | – | – | – | –
21 | CCOC(=O)c1cnc(NCc2cccc(Cl)c2)nc1O | 11 | 0 | 0 | 0 | 14 | 0 | 0 | 0 | 0
22 | CCOC(=O)c1cnc(NCCc2ccc(Cl)cc2Cl)nc1O | 11 | 0 | 0 | 0 | 0 | 0 | 0 | 0 | 0
23 | CCOC(=O)c1cnc(NCCc2ccc(Cl)cc2)nc1O | 0 | 0 | 7 | – | – | – | – | – | –
24 | CCOC(=O)c1cnc(NCCc2ccc(F)cc2)nc1O | 9 | 11 | 11 | 0 | 14 | 0 | 0 | 0 | 0
25 | O=C(O)c1cnc(NCc2ccc(Cl)cc2)nc1O | 11 | 15 | 14 | 0 | 15 | 14 | 9 | 0 | 0
26 | CCOC(=O)c1cnc(Nc2ccc(N3CCOCC3)cc2)nc1O | 9 | 11 | 6 | 0 | 14 | 0 | 8 | 0 | 0
27 | O=C(O)c1cnc(Nc2ccc(N3CCCCC3)cc2)nc1O | 11 | 0 | 12 | 0 | 0 | 11 | 10 | 0 | 0
28 | CCOC(=O)c1cnc(NCc2ccc(Cl)c(Cl)c2)nc1O | 0 | 0 | 12 | 0 | 0 | 0 | 0 | 0 | 0
29 | CCOC(=O)c1cnc(NCc2cc(Cl)ccc2Cl)nc1O | 9 | 0 | 13 | 0 | 0 | 0 | 0 | 14 | 0
30 | CCOC(=O)c1cnc(Nc2ccc(I)cc2)nc1O | 0 | 0 | 13 | – | – | – | – | – | –
31 | O=C(O)c1cnc(NCc2ccc(Cl)nc2)nc1O | 12 | 10 | – | – | – | – | – | – | –
